{"source": "patent US20240024488A1", "about": "“COMPOUNDS AND USES THEREOF” (Foghorn Therapeutics Inc., priority 2020, published 2024)", "key": {"HiBit-BRM fusion protein": {"target": "T1, HiBit-BRM fusion protein (Homo sapiens, UniProt P51531)", "T1 construct": "expressed in transfected cells", "T1 sequence (P51531 whole entry, the tested form may be a part)": "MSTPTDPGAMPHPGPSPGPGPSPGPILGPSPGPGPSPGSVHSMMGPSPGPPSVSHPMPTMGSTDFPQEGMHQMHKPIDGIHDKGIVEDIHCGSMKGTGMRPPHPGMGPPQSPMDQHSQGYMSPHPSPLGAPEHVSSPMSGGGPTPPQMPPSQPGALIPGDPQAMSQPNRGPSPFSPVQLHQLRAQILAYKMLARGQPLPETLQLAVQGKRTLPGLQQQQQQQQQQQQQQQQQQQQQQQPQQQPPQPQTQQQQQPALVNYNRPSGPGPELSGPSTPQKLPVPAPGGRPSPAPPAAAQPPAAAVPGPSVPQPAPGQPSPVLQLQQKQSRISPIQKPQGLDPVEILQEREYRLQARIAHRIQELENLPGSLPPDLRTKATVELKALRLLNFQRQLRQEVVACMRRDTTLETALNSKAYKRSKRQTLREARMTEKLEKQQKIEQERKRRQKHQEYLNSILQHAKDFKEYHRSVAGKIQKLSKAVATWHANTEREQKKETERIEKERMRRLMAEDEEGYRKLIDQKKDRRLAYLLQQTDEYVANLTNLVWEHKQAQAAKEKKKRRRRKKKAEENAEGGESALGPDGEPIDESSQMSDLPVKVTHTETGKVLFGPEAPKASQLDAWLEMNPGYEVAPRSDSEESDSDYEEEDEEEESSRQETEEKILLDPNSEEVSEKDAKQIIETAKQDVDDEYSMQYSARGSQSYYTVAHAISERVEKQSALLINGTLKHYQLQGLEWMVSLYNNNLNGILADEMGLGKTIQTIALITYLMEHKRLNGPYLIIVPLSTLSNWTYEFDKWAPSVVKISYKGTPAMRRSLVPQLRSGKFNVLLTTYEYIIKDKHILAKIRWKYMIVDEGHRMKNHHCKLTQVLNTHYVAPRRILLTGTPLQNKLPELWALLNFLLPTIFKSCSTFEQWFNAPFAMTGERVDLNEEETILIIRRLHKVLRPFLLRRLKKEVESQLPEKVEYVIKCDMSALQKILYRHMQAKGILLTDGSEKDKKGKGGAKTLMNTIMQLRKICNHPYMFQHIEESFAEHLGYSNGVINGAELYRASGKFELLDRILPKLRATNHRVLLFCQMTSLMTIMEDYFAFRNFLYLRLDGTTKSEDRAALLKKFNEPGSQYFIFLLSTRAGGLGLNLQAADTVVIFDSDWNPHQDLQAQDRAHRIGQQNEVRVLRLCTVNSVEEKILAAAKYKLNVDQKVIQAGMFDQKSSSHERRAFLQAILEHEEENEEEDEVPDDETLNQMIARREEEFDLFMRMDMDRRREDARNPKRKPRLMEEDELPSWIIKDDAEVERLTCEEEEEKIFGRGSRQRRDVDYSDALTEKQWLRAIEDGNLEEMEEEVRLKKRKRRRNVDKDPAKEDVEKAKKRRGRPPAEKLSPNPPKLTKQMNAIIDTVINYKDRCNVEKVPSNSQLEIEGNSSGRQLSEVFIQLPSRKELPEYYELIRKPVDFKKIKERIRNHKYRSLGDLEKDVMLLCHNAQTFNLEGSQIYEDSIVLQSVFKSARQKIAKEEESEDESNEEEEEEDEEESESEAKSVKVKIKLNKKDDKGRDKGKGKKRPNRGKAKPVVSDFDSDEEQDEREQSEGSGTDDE", "experiment": "HiBiT-BRM cell-based degradation assay (Nano-Glo HiBiT Lytic Detection, 24 h)", "details": "HeLa cell line expressing HiBiT-BRM; for DC50: read-out: BRM HiBit Degradation IC50", "outline": "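HeLa cells stably expressing HiBiT-BRM were treated for 24 h with compounds (10-point 3-fold dilutions, 30 μM final top dose, in duplicate). HiBiT was detected by lytic LgBiT complementation luminescence. % degradation was normalized to DMSO (high control) and 2 μM of a reference BRM/BRG1 degrader (low control).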"}, "[1]": {"target": "T2, HiBit-BRG1 fusion protein (Homo sapiens, UniProt P51532)", "T2 construct": "expressed in transfected cells", "T2 sequence (P51532 whole entry, the tested form may be a part)": "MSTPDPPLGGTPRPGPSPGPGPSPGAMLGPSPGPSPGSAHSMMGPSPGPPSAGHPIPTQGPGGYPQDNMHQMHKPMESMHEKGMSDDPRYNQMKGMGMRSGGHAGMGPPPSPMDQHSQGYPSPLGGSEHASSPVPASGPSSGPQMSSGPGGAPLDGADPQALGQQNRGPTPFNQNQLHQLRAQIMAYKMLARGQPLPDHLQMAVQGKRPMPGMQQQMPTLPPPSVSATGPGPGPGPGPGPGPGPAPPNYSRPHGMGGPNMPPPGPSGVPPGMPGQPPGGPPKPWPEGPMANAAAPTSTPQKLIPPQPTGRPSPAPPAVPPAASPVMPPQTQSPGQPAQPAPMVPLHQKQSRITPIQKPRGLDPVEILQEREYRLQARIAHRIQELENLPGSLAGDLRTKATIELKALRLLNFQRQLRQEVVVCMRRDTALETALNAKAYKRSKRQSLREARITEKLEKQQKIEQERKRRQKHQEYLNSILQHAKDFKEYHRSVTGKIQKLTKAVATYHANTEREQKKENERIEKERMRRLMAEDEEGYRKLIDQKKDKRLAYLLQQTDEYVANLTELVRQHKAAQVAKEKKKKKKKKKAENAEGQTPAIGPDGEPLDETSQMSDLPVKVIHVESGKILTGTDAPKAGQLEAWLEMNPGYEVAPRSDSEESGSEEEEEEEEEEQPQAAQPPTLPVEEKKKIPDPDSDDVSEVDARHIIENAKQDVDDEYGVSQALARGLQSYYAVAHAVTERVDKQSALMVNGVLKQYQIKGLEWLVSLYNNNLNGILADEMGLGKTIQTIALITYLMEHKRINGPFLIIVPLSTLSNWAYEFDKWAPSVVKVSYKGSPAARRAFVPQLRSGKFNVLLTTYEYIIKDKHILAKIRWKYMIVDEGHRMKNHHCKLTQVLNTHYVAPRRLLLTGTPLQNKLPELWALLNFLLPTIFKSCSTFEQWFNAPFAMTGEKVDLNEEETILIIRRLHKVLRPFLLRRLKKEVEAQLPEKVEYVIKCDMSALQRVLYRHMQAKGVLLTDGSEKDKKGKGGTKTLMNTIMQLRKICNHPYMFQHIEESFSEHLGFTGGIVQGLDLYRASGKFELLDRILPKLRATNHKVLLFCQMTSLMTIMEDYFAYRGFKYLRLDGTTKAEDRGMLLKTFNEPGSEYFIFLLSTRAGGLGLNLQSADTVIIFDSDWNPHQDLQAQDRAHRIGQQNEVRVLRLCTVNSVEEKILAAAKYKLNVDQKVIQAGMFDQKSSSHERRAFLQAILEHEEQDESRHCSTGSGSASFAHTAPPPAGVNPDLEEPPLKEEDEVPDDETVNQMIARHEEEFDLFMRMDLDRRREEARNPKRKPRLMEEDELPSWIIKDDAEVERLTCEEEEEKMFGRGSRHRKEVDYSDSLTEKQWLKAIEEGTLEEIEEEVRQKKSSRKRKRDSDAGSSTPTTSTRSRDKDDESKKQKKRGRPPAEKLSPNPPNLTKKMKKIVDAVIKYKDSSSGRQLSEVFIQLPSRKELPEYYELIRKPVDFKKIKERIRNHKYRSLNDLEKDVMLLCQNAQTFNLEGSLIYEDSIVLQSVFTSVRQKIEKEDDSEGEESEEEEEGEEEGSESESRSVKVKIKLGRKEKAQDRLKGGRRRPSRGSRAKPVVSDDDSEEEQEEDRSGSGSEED", "experiment": "HiBiT-BRG1 cell-based degradation assay (Nano-Glo HiBiT Lytic Detection, 24 h)", "details": "HeLa cell line expressing HiBit-BRG1 and LgBit; for Dmax: read-out: BRG1 HiBit Degradation Maximum (%); for DC50: read-out: BRMG1 HiBit Degradation IC50", "outline": "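Percent degradation derived from lytic HiBiT signal, normalized to DMSO-treated cells and to cells given 2 μM of a known BRM/BRG1 degrader. The HeLa line stably expressed HiBit-BRG1 and LgBit; treatment lasted 24 h at 5000 cells per well.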"}}, "data": [{"compound": "Cc1ncsc1-c1ccc([C@H](C)NC(=O)[C@@H]2C[C@@H](O)CN2C(=O)[C@@H](c2cc(N3C[C@H]4C[C@@H]3CN4C(=O)[C@@H]3CCc4[nH]c5nnc(-c6ccccc6O)cc5c4C3)no2)C(C)C)cc1", "note": "[Compound 101, (2S,4R)-4-hydroxy-1-((R)-2-(3-((1R,4R)-5-((R)-3-(2-hydroxyphenyl)-6,7,8,9-tetrahydro-5H-pyridazino[3,4-b]indole-6-carbonyl)-2,5-diazabicyclo[2.2.1]heptan-2-yl)isoxazol-5-yl)-3-methylbutanoyl)-N-((S)-1-(4-(4-methylthiazol-5-yl)phenyl)ethyl)pyrrolidine-2-carboxamide]", "values": [{"measurement": "BRM HiBit Degradation Maximum (%)", "setting": "HiBit-BRM fusion protein", "result": "A (“A” indicates maximum degradation ≥ 75%)"}, {"measurement": "DC50", "setting": "HiBit-BRM fusion protein", "result": "< 10", "unit": "nM"}, {"measurement": "Dmax", "setting": "[1]", "result": "> 75", "unit": "%"}, {"measurement": "DC50", "setting": "[1]", "result": "> 10", "unit": "nM"}]}, {"compound": "Cc1ncsc1-c1ccc([C@H](C)NC(=O)[C@@H]2C[C@@H](O)CN2C(=O)[C@@H](c2cc(OCC(=O)N(C)[C@H]3CCc4[nH]c5nnc(-c6ccccc6O)cc5c4C3)no2)C(C)C)cc1", "note": "[Compound 106, (2S,4R)-4-hydroxy-1-((R)-2-(3-(2-(((S)-3-(2-hydroxyphenyl)-6,7,8,9-tetrahydro-5H-pyridazino[3,4-b]indol-6-yl)(methyl)amino)-2-oxoethoxy)isoxazol-5-yl)-3-methylbutanoyl)-N-((S)-1-(4-(4-methylthiazol-5-yl)phenyl)ethyl)pyrrolidine-2-carboxamide]", "values": [{"measurement": "BRM HiBit Degradation Maximum (%)", "setting": "HiBit-BRM fusion protein", "result": "A (“A” indicates maximum degradation ≥ 75%)"}, {"measurement": "DC50", "setting": "HiBit-BRM fusion protein", "result": "> 10", "unit": "nM"}, {"measurement": "Dmax", "setting": "[1]", "result": "< 50", "unit": "%"}]}, {"compound": "Cc1ncsc1-c1ccc([C@H](C)NC(=O)[C@@H]2C[C@@H](O)CN2C(=O)[C@@H](c2cc(N3CCC(CN(C)[C@H]4CCc5[nH]c6nnc(-c7ccccc7O)cc6c5C4)CC3)no2)C(C)C)cc1", "note": "[Compound 107, (2S,4R)-4-hydroxy-1-((R)-2-(3-(4-((((S)-3-(2-hydroxyphenyl)-6,7,8,9-tetrahydro-5H-pyridazino[3,4-b]indol-6-yl)(methyl)amino)methyl)piperidin-1-yl)isoxazol-5-yl)-3-methylbutanoyl)-N-((S)-1-(4-(4-methylthiazol-5-yl)phenyl)ethyl)pyrrolidine-2-carboxamide]", "values": [{"measurement": "BRM HiBit Degradation Maximum (%)", "setting": "HiBit-BRM fusion protein", "result": "A (“A” indicates maximum degradation ≥ 75%)"}, {"measurement": "DC50", "setting": "HiBit-BRM fusion protein", "result": "> 10", "unit": "nM"}, {"measurement": "Dmax", "setting": "[1]", "result": "> 75", "unit": "%"}, {"measurement": "DC50", "setting": "[1]", "result": "> 10", "unit": "nM"}]}, {"compound": "Cc1ncsc1-c1ccc([C@H](C)NC(=O)[C@@H]2C[C@@H](O)CN2C(=O)[C@@H](c2cc(OCCN3C[C@H]4C[C@@H](c5c(C)[nH]c6nnc(-c7ccccc7O)cc56)C[C@H]4C3)no2)C(C)C)cc1", "note": "[Compound 109, (2S,4R)-4-hydroxy-1-((R)-2-(3-(2-((3aR,5R,6aS)-5-(3-(2-hydroxyphenyl)-6-methyl-7H-pyrrolo [2,3-c]pyridazin-5-yl)hexahydrocyclopenta[c]pyrrol-2(1H)-yl)ethoxy)isoxazol-5-yl)-3-methylbutanoyl)-N-((S)-1-(4-(4-methylthiazol-5-yl)phenyl)ethyl)pyrrolidine-2-carboxamide]", "values": [{"measurement": "BRM HiBit Degradation Maximum (%)", "setting": "HiBit-BRM fusion protein", "result": "A (“A” indicates maximum degradation ≥ 75%)"}, {"measurement": "IC50", "setting": "HiBit-BRM fusion protein", "result": "> 10", "unit": "nM"}, {"measurement": "BRG1 HiBit Degradation Maximum (%)", "setting": "[1]", "result": "C (“C” indicates maximum degradation < 50%)"}]}, {"compound": "Cc1ncsc1-c1ccc([C@H](C)NC(=O)[C@@H]2C[C@@H](O)CN2C(=O)[C@@H](c2cc(OCCN3CC(c4cn(C(F)F)c5nnc(-c6ccccc6O)cc45)C3)no2)C(C)C)cc1", "note": "[Compound 116, (2S,4R)-1-((R)-2-(3-(2-(3-(7-(difluoromethyl)-3-(2-hydroxyphenyl)-7H-pyrrolo[2,3-c]pyridazin-5-yl)azetidin-1-yl)ethoxy)isoxazol-5-yl)-3-methylbutanoyl)-4-hydroxy-N-((S)-1-(4-(4-methylthiazol-5-yl)phenyl)ethyl)pyrrolidine-2-carboxamide]", "values": [{"measurement": "BRM HiBit Degradation Maximum (%)", "setting": "HiBit-BRM fusion protein", "result": "C (“C” indicates maximum degradation < 50%)"}, {"measurement": "Dmax", "setting": "[1]", "result": "< 50", "unit": "%"}]}, {"compound": "Cc1ncsc1-c1ccc([C@H](C)NC(=O)[C@@H]2C[C@@H](O)CN2C(=O)[C@@H](c2cc(OCCN3CC(C4(C)Cc5cc(-c6ccccc6O)nnc5N4)C3)no2)C(C)C)cc1", "note": "(stereo partly drawn) [Compound 122, (2S,4R)-4-hydroxy-1-((2R)-2-(3-(2-(3-(3-(2-hydroxyphenyl)-6-methyl-6,7-dihydro-5H-pyrrolo[2,3-c]pyridazin-6-yl)azetidin-1-yl)ethoxy)isoxazol-5-yl)-3-methylbutanoyl)-N-((S)-1-(4-(4-methylthiazol-5-yl)phenyl)ethyl)pyrrolidine-2-carboxamide]", "values": [{"measurement": "BRM HiBit Degradation Maximum (%)", "setting": "HiBit-BRM fusion protein", "result": "C (“C” indicates maximum degradation < 50%)"}, {"measurement": "Dmax", "setting": "[1]", "result": "> 50", "unit": "%"}]}, {"compound": "Cc1ncsc1-c1ccc([C@H](C)NC(=O)[C@@H]2C[C@@H](O)CN2C(=O)[C@@H](c2cc(OCCN3Cc4[nH]c5nnc(-c6ccccc6O)cc5c4C3)no2)C(C)C)cc1", "note": "[Compound 123, (2S,4R)-4-hydroxy-1-[(2R)-2-(3-{2-[11-(2-hydroxyphenyl)-4,7,9,10-tetraazatricyclo[6.4.0.0^{2,6}]dodeca-1(12),2(6),8,10-tetraen-4-yl]ethoxy}-1,2-oxazol-5-yl)-3-methylbutanoyl]-N-[(1S)-1-[4-(4-methyl-1,3-thiazol-5-yl)phenyl]ethyl]pyrrolidine-2-carboxamide]", "values": [{"measurement": "BRM HiBit Degradation Maximum (%)", "setting": "HiBit-BRM fusion protein", "result": "A (“A” indicates maximum degradation ≥ 75%)"}, {"measurement": "DC50", "setting": "HiBit-BRM fusion protein", "result": "> 100", "unit": "nM"}, {"measurement": "Dmax", "setting": "[1]", "result": "< 50", "unit": "%"}]}, {"compound": "Cc1ncsc1-c1ccc(C(C)NC(=O)C2CC(O)CN2C(=O)C(c2cc(OCCN3CC4C(C3)C4c3cc4cc(-c5cc(F)cc(F)c5O)nnc4[nH]3)no2)C(C)C)cc1", "note": "[Compound 141, (2S,4R)-1-((R)-2-(3-(2-((1R,5S,6R)-6-(3-(3,5-difluoro-2-hydroxyphenyl)-7H-pyrrolo[2,3-c]pyridazin-6-yl)-3-azabicyclo[3.1.0]hexan-3-yl)ethoxy)isoxazol-5-yl)-3-methylbutanoyl)-4-hydroxy-N-((S)-1-(4-(4-methylthiazol-5-yl)phenyl)ethyl)pyrrolidine-2-carboxamide]", "values": [{"measurement": "BRM HiBit Degradation Maximum (%)", "setting": "HiBit-BRM fusion protein", "result": "A (“A” indicates maximum degradation ≥ 75%)"}, {"measurement": "DC50", "setting": "HiBit-BRM fusion protein", "result": "> 10", "unit": "nM"}, {"measurement": "Dmax", "setting": "[1]", "result": "< 50", "unit": "%"}]}, {"compound": "Cc1ncsc1-c1ccc([C@H](C)NC(=O)[C@@H]2C[C@@H](O)CN2C(=O)[C@@H](c2cc(OCCCN[C@H]3CCc4[nH]c5nnc(-c6ccccc6O)cc5c4C3)no2)C(C)C)cc1", "note": "[Compound 143, (2S,4R)-4-hydroxy-1-((R)-2-(3-(3-(((S)-3-(2-hydroxyphenyl)-6,7,8,9-tetrahydro-5H-pyridazino[3,4-b]indol-6-yl)amino)propoxy)isoxazol-5-yl)-3-methylbutanoyl)-N-((S)-1-(4-(4-methylthiazol-5-yl)phenyl)ethyl)pyrrolidine-2-carboxamide]", "values": [{"measurement": "BRM HiBit Degradation Maximum (%)", "setting": "HiBit-BRM fusion protein", "result": "A (“A” indicates maximum degradation ≥ 75%)"}, {"measurement": "DC50", "setting": "HiBit-BRM fusion protein", "result": "> 100", "unit": "nM"}, {"measurement": "Dmax", "setting": "[1]", "result": "< 50", "unit": "%"}]}, {"compound": "Cc1ncsc1-c1ccc([C@H](C)NC(=O)[C@@H]2C[C@@H](O)CN2C(=O)[C@@H](c2cc(N3CCC(C(=O)N[C@H]4CCc5[nH]c6nnc(-c7ccccc7O)cc6c5C4)CC3)no2)C(C)C)cc1", "note": "[Compound 144, 1-(5-((R)-1-((2S,4R)-4-hydroxy-2-(((S)-1-(4-(4-methylthiazol-5-yl)phenyl)ethyl)carbamoyl)pyrrolidin-1-yl)-3-methyl-1-oxobutan-2-yl)isoxazol-3-yl)-N-((S)-3-(2-hydroxyphenyl)-6,7,8,9-tetrahydro-5H-pyridazino[3,4-b]indol-6-yl)piperidine-4-carboxamide]", "values": [{"measurement": "BRM HiBit Degradation Maximum (%)", "setting": "HiBit-BRM fusion protein", "result": "A (“A” indicates maximum degradation ≥ 75%)"}, {"measurement": "DC50", "setting": "HiBit-BRM fusion protein", "result": "> 10", "unit": "nM"}, {"measurement": "Dmax", "setting": "[1]", "result": "> 50", "unit": "%"}, {"measurement": "DC50", "setting": "[1]", "result": "> 100", "unit": "nM"}]}, {"compound": "Cc1ncsc1-c1ccc([C@H](C)NC(=O)[C@@H]2C[C@@H](O)CN2C(=O)[C@@H](c2cc(OCC(=O)N[C@@H]3CCc4[nH]c5nnc(-c6ccccc6O)cc5c4C3)no2)C(C)C)cc1", "note": "[Compound 150, (2S,4R)-4-hydroxy-1-((R)-2-(3-(2-(((R)-3-(2-hydroxyphenyl)-6,7,8,9-tetrahydro-5H-pyridazino[3,4-b]indol-6-yl)amino)-2-oxoethoxy)isoxazol-5-yl)-3-methylbutanoyl)-N-((S)-1-(4-(4-methylthiazol-5-yl)phenyl)ethyl)pyrrolidine-2-carboxamide]", "values": [{"measurement": "BRM HiBit Degradation Maximum (%)", "setting": "HiBit-BRM fusion protein", "result": "A (“A” indicates maximum degradation ≥ 75%)"}, {"measurement": "DC50", "setting": "HiBit-BRM fusion protein", "result": "> 10", "unit": "nM"}, {"measurement": "Dmax", "setting": "[1]", "result": "> 50", "unit": "%"}, {"measurement": "DC50", "setting": "[1]", "result": "> 100", "unit": "nM"}]}, {"compound": "Cc1ncsc1-c1ccc([C@H](C)NC(=O)[C@@H]2C[C@@H](O)CN2C(=O)[C@@H](c2cc(OCCN(C)[C@@H]3CCc4[nH]c5nnc(-c6ccccc6O)cc5c4C3)no2)C(C)C)cc1", "note": "[Compound 156, (2S,4R)-4-hydroxy-1-((R)-2-(3-(2-(((R)-3-(2-hydroxyphenyl)-6,7,8,9-tetrahydro-5H-pyridazino[3,4-b]indol-6-yl)(methyl)amino)ethoxy)isoxazol-5-yl)-3-methylbutanoyl)-N-((S)-1-(4-(4-methylthiazol-5-yl)phenyl)ethyl)pyrrolidine-2-carboxamide]", "values": [{"measurement": "BRM HiBit Degradation Maximum (%)", "setting": "HiBit-BRM fusion protein", "result": "A (“A” indicates maximum degradation ≥ 75%)"}, {"measurement": "DC50", "setting": "HiBit-BRM fusion protein", "result": "> 10", "unit": "nM"}, {"measurement": "Dmax", "setting": "[1]", "result": "< 50", "unit": "%"}]}, {"compound": "Cc1ncsc1-c1ccc([C@H](C)NC(=O)[C@@H]2C[C@@H](O)CN2C(=O)[C@@H](c2cc(N3CCC(CN[C@H]4CCc5[nH]c6nnc(-c7ccccc7O)cc6c5C4)CC3)no2)C(C)C)cc1", "note": "[Compound 159, (2S,4R)-4-hydroxy-1-((R)-2-(3-(4-((((S)-3-(2-hydroxyphenyl)-6,7,8,9-tetrahydro-5H-pyridazino[3,4-b]indol-6-yl)amino)methyl)piperidin-1-yl)isoxazol-5-yl)-3-methylbutanoyl)-N-((S)-1-(4-(4-methylthiazol-5-yl)phenyl)ethyl)pyrrolidine-2-carboxamide]", "values": [{"measurement": "BRM HiBit Degradation Maximum (%)", "setting": "HiBit-BRM fusion protein", "result": "A (“A” indicates maximum degradation ≥ 75%)"}, {"measurement": "DC50", "setting": "HiBit-BRM fusion protein", "result": "> 10", "unit": "nM"}, {"measurement": "Dmax", "setting": "[1]", "result": "> 75", "unit": "%"}, {"measurement": "DC50", "setting": "[1]", "result": "> 100", "unit": "nM"}]}]}
